# According to publication PMC6158578, “Optimization and Lead Selection of Benzothiazole Amide Analogs Toward a Novel Antimycobacterial Agent” (Frontiers in Microbiology, 2018):
# Read-outs that look alike come from different tables or passages of the source.
# How the values were obtained:
# [1] = tested on: E. coli tolC CGSC 5633 (efflux mutant strain); assay: microbe, parasite or virus in culture; assay type: cell-based; settings: Escherichia coli
# P. aeruginosa ATCC 35151 = assay: MIC, spectrum of activity; assay type: cell-based; settings: Pseudomonas aeruginosa, ATCC35151
# [2] = 50% complement-inactivated human serum
# M. abscessus = tested on: M. abscessus; set-up: method as in Graham et al., 2018; settings: SAR of CRS400153 analogs; ref Graham et al., 2018; cited from earlier work
# S. pyogenes ATCC 19615 = assay: MIC, spectrum of activity; assay type: cell-based; settings: Streptococcus pyogenes, ATCC19615
# [3] = tested on: Mtb intact cells and inverted membrane vesicles; assay type: cell-based, M. tuberculosis
# physchem = assay type: physicochemical; settings: pH 7.4, aqueous buffer, thermodynamic from solid
# Method: (§1) ADMET assays were performed through NIAID Preclinical Services and Eurofins. Potential for cytotoxicity was monitored in HepG2 cells after 72 h growth in the presence of test compounds, either prepared as 10-point 3-fold serial dilutions or at a fixed 10 μM concentration. Cell viability was measured using the CellTiter-Glo® Luminescent Cell Viability Assay (Promega) or via fluorescent image analysis. Cytotoxicity was expressed as IC50 or as percent reduction of viable cells relative to a reference compound. Metabolic stability of compounds was evaluated via incubation with human liver microsomes at 37°C and quantitative analysis of parent compound by LC-MS/MS in samples removed at 0, 5, 15, 30, and 45 min (Obach, [1999]). For cytochrome P450 (CYP) inhibition assays, compounds were prepared as a 7-point dilution series and incubated with human liver microsomes in buffer containing 2 mM NADPH and probe substrate. […] Thermodynamic solubility of compounds in aqueous media was determined by incubation in 50 mM potassium phosphate buffer (pH 7.4) for 24 h, followed by HPLC-UV detection of compound in the filtrate (Analiza, Cleveland, OH, United States).
# [4] = tested on: E. coli ATCC 25922 + PMBN (permeabilized); assay: MIC, spectrum of activity; assay type: cell-based; settings: Escherichia coli, ATCC25922
# [5] = tested on: M. peregrinum ATCC 700686; assay: MIC, broth microdilution with resazurin (MHB, 3 days); assay type: cell-based; settings: Mycolicibacterium peregrinum, ATCC700686
# S. aureus ATCC 29213 = assay: MIC, spectrum of activity; assay type: cell-based; settings: Staphylococcus aureus, ATCC29213
# M. chelonae 93 = assay: MIC, broth microdilution with resazurin (MHB, 3 days); assay type: cell-based; settings: Mycobacteroides chelonae, 93
# M. avium 101 = assay: MIC, Middlebrook medium (7H9 + OADC, 7 days); assay type: cell-based; settings: Mycobacterium avium, 101, 168 h
# M. fortuitum 41 = assay: MIC, broth microdilution with resazurin (MHB, 3 days); assay type: cell-based; settings: Mycolicibacterium fortuitum, 41
# E. faecalis ATCC 29212 = assay: MIC, spectrum of activity; assay type: cell-based; settings: Enterococcus faecalis, ATCC29212
# [6] = tested on: mycolic acid transfer in Mabs ATCC19977; assay: Metabolic labeling with [14C]acetate; assay type: cell-based, M. abscessus; settings: 2x and 10x MIC
# [7] = tested on: M. abscessus (n = 20) clinical isolates; assay: MIC against rapid-growing NTM clinical isolates; assay type: cell-based; settings: for MIC range: M. abscessus (n = 20); for MIC90: Mycobacteroides abscessus
# M. abscessus ATCC 19977 = assay: MIC, broth microdilution with resazurin (MHB, 3 days); assay type: cell-based; settings: Mycobacteroides abscessus, ATCC19977
# [8] = tested on: M. tuberculosis H37Rv mc^2 6206; assay: microbe, parasite or virus in culture; assay type: cell-based; settings: Mycobacterium tuberculosis
# [9] = tested on: M. chelonae (n = 11) clinical isolates; assay: MIC against rapid-growing NTM clinical isolates; assay type: cell-based; settings: for MIC range: M. chelonae (n = 11); for MIC90: Mycobacteroides chelonae
# [10] = tested on: M. abscessus massiliense 119; assay: MIC, broth microdilution with resazurin (MHB, 3 days); assay type: cell-based; settings: Mycobacteroides abscessus
# [11] = tested on: M. fortuitum (n = 11) clinical isolates; assay: MIC against rapid-growing NTM clinical isolates; assay type: cell-based; settings: for MIC range: M. fortuitum (n = 11); for MIC90: Mycolicibacterium fortuitum
# S. pneumoniae ATCC 49619 = assay: MIC, spectrum of activity; assay type: cell-based; settings: Streptococcus pneumoniae, ATCC49619
# Other NTM (n = 12) = assay: MIC against rapid-growing NTM clinical isolates; assay type: cell-based; settings: for MIC range: Other NTM (n = 12)
# M. intracellulare 1956 = assay: MIC, Middlebrook medium (7H9 + OADC, 7 days); assay type: cell-based; settings: Mycobacterium intracellulare, 1956, 168 h
# C. albicans ATCC 10231 = assay: MIC, spectrum of activity; assay type: cell-based; settings: Candida albicans, ATCC10231
# rapid-growing NTM = assay: MIC against rapid-growing NTM; assay type: cell-based; settings: read-out: MIC values against rapid-growing NTM
# M. chimaera 1502055 = assay: MIC, Middlebrook medium (7H9 + OADC, 7 days); assay type: cell-based; settings: 1502055, 168 h
# M. avium complex (MAC) = assay: MIC against MAC; assay type: cell-based; settings: Mycobacterium avium, read-out: MIC against MAC
# M. abscessus 21 = assay: MIC in MHB versus 7H9+OADC; assay type: cell-based
# HepG2 cytotoxicity, 72 h = assay type: cell-based; settings: human, HepG2 cells, HepG2, 72 h, read-out: HepG2 cytotox., IC50
# Method: as §1
# [12] = tested on: Anaerobes (n > 20 strains); assay: organism not typed; assay type: cell-based
# CYP2B6 = biological target: T1, CYP2B6 (Homo sapiens, UniProt P20813); assay: CYP inhibition in human liver microsomes; assay type: in vitro ADME
# T1 construct: incubated with human liver microsomes in buffer containing 2 mM NADPH and probe substrate; from tissue; host or cells: human liver microsomes
# T1 sequence (P20813 1-491): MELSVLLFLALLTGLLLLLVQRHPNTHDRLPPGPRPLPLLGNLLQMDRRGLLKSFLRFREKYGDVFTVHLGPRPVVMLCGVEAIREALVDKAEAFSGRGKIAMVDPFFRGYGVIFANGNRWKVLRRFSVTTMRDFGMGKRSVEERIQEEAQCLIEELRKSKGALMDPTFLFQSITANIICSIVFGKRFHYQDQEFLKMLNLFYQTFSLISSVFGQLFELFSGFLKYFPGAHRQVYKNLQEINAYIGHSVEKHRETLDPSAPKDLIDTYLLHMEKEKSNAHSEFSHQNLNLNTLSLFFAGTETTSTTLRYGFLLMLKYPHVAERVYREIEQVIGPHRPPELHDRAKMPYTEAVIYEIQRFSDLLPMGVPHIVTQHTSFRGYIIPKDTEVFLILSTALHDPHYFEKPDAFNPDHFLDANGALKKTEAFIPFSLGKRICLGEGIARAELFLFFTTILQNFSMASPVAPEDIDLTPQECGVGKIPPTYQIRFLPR
# Method: as §1
# CYP3A = assay: CYP inhibition in human liver microsomes; assay type: in vitro ADME
# Method: as §1
# Mabs 21 = assay: Time-kill assay; assay type: cell-based, M. abscessus; settings: 10x MIC
# M. abscessus 1 = assay: MIC in MHB versus 7H9+OADC; assay type: cell-based
# M. abscessus 79 = assay: MIC in MHB versus 7H9+OADC; assay type: cell-based
# [13] = assay type: cell-based
structure (smiles),measurement,setting,value
CC1CC(C(=O)Nc2nc3c(F)cc(F)cc3s2)CC(C)(C)C1 (stereo not shown) [CRS400153],MIC,[1],> 64 µg/mL
same,MIC,P. aeruginosa ATCC 35151,> 64 µg/mL
same,Protein (serum) binding,[2],>95%
same,MIC against M. abscessus,M. abscessus,0.5 µg/mL
same,MIC,S. pyogenes ATCC 19615,> 64 µg/mL
same,effect on membrane potential and electrochemical pH gradient,[3],no effect
same,solubility at 24 h,physchem,3 µM
same,MIC,[4],> 64 µg/mL
same,MIC,[5],0.12 µg/mL
same,MIC,S. aureus ATCC 29213,> 64 µg/mL
same,MIC,M. chelonae 93,0.25 µg/mL
same,MIC,M. avium 101,16 µg/mL
same,MIC,M. fortuitum 41,0.25 µg/mL
same,MIC,E. faecalis ATCC 29212,> 64 µg/mL
same,effect on mycolic acid transfer to arabinogalactan and trehalose dimycolates,[6],concentration-dependent inhibition of mycolic acid transfer
same,MIC range,[7],0.5 to 2 µg/mL
same,MIC90,[7],1 µg/mL
same,MIC,M. abscessus ATCC 19977,0.5 µg/mL
same,MIC,[8]; 168 h,1 µg/mL
same,MIC range,[9],0.5 to 1 µg/mL
same,MIC90,[9],1 µg/mL
same,MIC,[10],0.5 µg/mL
same,MIC range,[11],0.5–0.5 μg/mL
same,MIC90,[11],0.5 µg/mL
same,MIC,S. pneumoniae ATCC 49619,8 µg/mL
same,MIC90,Other NTM (n = 12),1 µg/mL
same,MIC range,Other NTM (n = 12),0.25 to 1 µg/mL
same,MIC,M. intracellulare 1956,8 µg/mL
CC12CCCC(C(=O)Nc3nc4cc(Cl)cc(Cl)c4s3)(CCC1)C2 [CRS400393],MIC,[1],64 µg/mL
same,MIC,P. aeruginosa ATCC 35151,64 µg/mL
same,MIC,C. albicans ATCC 10231,> 64 µg/mL
same,MIC,rapid-growing NTM,0.03 to 0.5 µg/mL
same,Protein (serum) binding,[2],>95%
same,MIC,S. pyogenes ATCC 19615,> 64 µg/mL
same,solubility at 24 h,physchem,< 3 µM
same,MIC,[4],> 64 µg/mL
same,MIC,[5],0.03 µg/mL
same,MIC,M. chimaera 1502055,1 µg/mL
same,MIC,S. aureus ATCC 29213,> 64 µg/mL
same,MIC,M. chelonae 93,0.03 µg/mL
same,MIC,M. avium complex (MAC),1 to 2 µg/mL
same,MIC,M. avium 101,2 µg/mL
same,MIC,M. fortuitum 41,0.06 µg/mL
same,MIC,"M. abscessus 21; M. abscessus 21, 7H9 + OADC (5 mg/mL albumin)",1 µg/mL
same,MIC,"M. abscessus 21; M. abscessus 21, MHB",0.03 µg/mL
same,MIC,E. faecalis ATCC 29212,> 64 µg/mL
same,IC50 at 72 h,"HepG2 cytotoxicity, 72 h",> 10 µM
same,IC50 at 72 h,"HepG2 cytotoxicity, 72 h; value in brackets",> 4 µg/mL
same,MIC,[12],> 32 µg/mL
same,inhibition at 10 µM,CYP2B6,39%
same,inhibition at 10 µM,CYP3A,26%
same,"time-kill kinetics, result in words",Mabs 21,bactericidal activity
same,drop in Mabs in time-kill assay,Mabs 21; after 5 days,2 Log10 CFU
same,effect against Mabs in time-kill assay,Mabs 21; for 3 days,bacteriostatic
same,MIC range,[7],≤ 0.03 to 0.25 µg/mL
same,MIC90,[7],0.25 µg/mL
same,MIC,"M. abscessus 1; M. abscessus 1, 7H9 + OADC (5 mg/mL albumin)",1 µg/mL
same,MIC,"M. abscessus 1; M. abscessus 1, MHB",0.06 µg/mL
same,MIC,M. abscessus ATCC 19977,0.03 µg/mL
same,MIC,[8]; 168 h,≤ 0.12 µg/mL
same,MIC,[8]; read-out: MIC against Mtb,≤ 0.12 µg/mL
same,MIC range,[9],0.12–0.12 μg/mL
same,MIC90,[9],0.12 µg/mL
same,MIC,"M. abscessus 79; M. abscessus 79, 7H9 + OADC (5 mg/mL albumin)",0.5 µg/mL
same,MIC,"M. abscessus 79; M. abscessus 79, MHB",0.03 µg/mL
same,interaction when combined with other antimycobacterial agents,[13],additivity and no antagonism
same,MIC,[10],0.03 µg/mL
same,MIC range,[11],≤ 0.03 to 0.5 µg/mL
same,MIC90,[11],0.25 µg/mL
same,MIC,S. pneumoniae ATCC 49619,32 µg/mL
same,MIC90,Other NTM (n = 12),0.5 µg/mL
same,MIC range,Other NTM (n = 12),0.12 to 0.5 µg/mL
same,MIC,M. intracellulare 1956,2 µg/mL
